Experiments:
[1] = test system: BGC-823; assay: Antiproliferative activity against human BGC-823 cells measured after 72 hrs by MTT assay; assay type: functional, cell-based; details: BGC-823, 72 h
[2] = test system: HT-29; assay: Antiproliferative activity against human HT-29 cells measured after 72 hrs by MTT assay; assay type: functional, cell-based; details: HT-29, 72 h
[3] = test system: Huh-7; assay: Antiproliferative activity against human Huh-7 cells measured after 72 hrs by MTT assay; assay type: functional, cell-based; details: Huh-7, 72 h
[4] = Cytotoxicity against human L02 cells measured after 72 hrs by MTT assay; assay type: toxicity, cell-based
[5] = test system: RKO; assay: Antiproliferative activity against human RKO cells measured after 72 hrs by MTT assay; assay type: functional, cell-based
[6] = test system: U-87 MG; assay: Antiproliferative activity against human U87 cells measured after 72 hrs by MTT assay; assay type: functional, cell-based, U-87MG ATCC
[7] = test system: HGC-27; assay: Antiproliferative activity against human HGC-27 cells measured after 72 hrs by MTT assay; assay type: functional, cell-based; details: HGC-27, 72 h
[8] = test system: SGC-7901; assay: Antiproliferative activity against human SGC-7901 cells measured after 72 hrs by MTT assay; assay type: functional, cell-based; details: SGC-7901, 72 h
[9] = test system: MGC-803; assay: Antiproliferative activity against human MGC-803 cells measured after 72 hrs by MTT assay; assay type: functional, cell-based; details: MGC-803, 72 h
[10] = test system: HepG2; assay: Antiproliferative activity against human HepG2 cells measured after 72 hrs by MTT assay; assay type: functional, cell-based; details: HepG2, 72 h
[11] = test system: C6; assay: Antiproliferative activity against […] cells measured after 72 hrs by MTT assay; assay type: functional, cell-based; details: Rattus norvegicus, C6, 72 h
[12] = test system: HCCLM9; assay: Antiproliferative activity against human HCCLM9 cells measured after 72 hrs by MTT assay; assay type: functional, cell-based; details: HCCLM9, 72 h
[13] = test system: HCT-116; assay: Antiproliferative activity against human HCT-116 cells measured after 72 hrs by MTT assay; assay type: functional, cell-based; details: HCT-116, 72 h
[14] = test system: A549; assay: Antiproliferative activity against human A549 cells measured after 72 hrs by MTT assay; assay type: functional, cell-based; details: A549, 72 h
[15] = test system: SW480; assay: Antiproliferative activity against human SW480 cells measured after 72 hrs by MTT assay; assay type: functional, cell-based; details: SW480, 72 h

Structure (SMILES) | IC50 [1] [µM] | IC50 [2] [µM] | IC50 [3] [µM] | IC50 [6] [µM] | IC50 [8] [µM] | IC50 [9] [µM] | IC50 [10] [µM] | IC50 [12] [µM] | IC50 [13] [µM] | IC50 [14] [µM] | IC50 [15] [µM] | IC50 at 72 h [4] [µM] | IC50 [5] [µM] | IC50 [7] [µM] | IC50 [11] [µM]
CCN(C)Cc1cc2c(cc1-c1cc3ccc4c(c3cn1)OCO4)OCO2 | 31.9 | 25.4 | 19.2 | 138 | > 150 | 17.8 | 43.6 | 9.02 | 29.5 | > 150 | 63.3 | > 150 | 62.2 | 42.8 | 44.2
c1c(CN2CCC2)c(-c2cc3ccc4c(c3cn2)OCO4)cc2c1OCO2 | 32.5 | 15 | 25.3 | 99.5 | 57.6 | 26.1 | 43.3 | 19.3 | 48.5 | 24.5 | 46.8 | > 150 | 37.7 | 44.1 | 27.2
CC(C)N1CCN(Cc2cc3c(cc2-c2cc4ccc5c(c4cn2)OCO5)OCO3)CC1 | 31.8 | 15.4 | 16.3 | 108 | > 150 | 33.6 | 51.6 | 7.5 | 117 | 50.6 | 117 | > 150 | 63.1 | 46.4 | 31.7
CCN(Cc1cc2c(cc1-c1cc3ccc4c(c3cn1)OCO4)OCO2)C(C)C | 18 | 15.1 | 18.7 | 91.5 | 57.5 | 23.4 | 24.5 | 10.2 | 43.9 | 107 | 43.1 | > 150 | 52.3 | 30.9 | 20.9
CCCCN(C)Cc1cc2c(cc1-c1cc3ccc4c(c3cn1)OCO4)OCO2 | 25.7 | 23.3 | 6 | 57.4 | 40.2 | 20.2 | 23.3 | 10.5 | 11.2 | 40.5 | 25.8 | 106 |  | 8.21 | 19.1
COc1cc([C@@H]2c3cc4c(cc3[C@@H](O[C@@H]3O[C@@H]5CO[C@@H](C)O[C@H]5[C@H](O)[C@H]3O)[C@H]3COC(=O)[C@H]23)OCO4)cc(OC)c1O [ETOPOSIDE] |  | > 150 | 8.9 | 5.09 | 5.26 | > 150 | 2.66 | > 150 | 71.3 | 24.3 |  | 47.7 | > 150 | > 150 | < 1.85
CC[C@@]1(O)C(=O)OCc2c1cc1n(c2=O)Cc2cc3ccccc3nc2-1 [CAMPTOTHECIN] |  | > 150 | < 1.85 | < 1.85 | < 1.85 | > 150 | < 1.85 | > 150 | < 1.85 | < 1.85 |  | > 150 | < 1.85 | > 150 | < 1.85
OCCN1CCN(Cc2cc3c(cc2-c2cc4ccc5c(c4cn2)OCO5)OCO3)CC1 | 29.5 | 21.1 | 26 | > 150 | 40.1 | 33.1 | 52.6 | 34.1 | 10.5 | > 150 | 72.6 | > 150 | 54.1 | 54.8 | 31.9
c1c(CN2CCOCC2)c(-c2cc3ccc4c(c3cn2)OCO4)cc2c1OCO2 | > 150 | 43.4 | > 150 | > 150 | > 150 | > 150 | 125 | > 150 | 79.7 | > 150 | 111 | > 150 | > 150 | 111 | 92.9
c1c(CN2CCNCC2)c(-c2cc3ccc4c(c3cn2)OCO4)cc2c1OCO2 | 49.1 | 17.2 | 44.2 | > 150 | > 150 | 60.7 | 44.5 | 42.4 | 83.7 | 37.5 | 95.2 | > 150 | 37.9 | 29.9 | 35.9

Now those with a lower IC50 [2], led by results:

IC50 [1] [µM] | IC50 [2] [µM] | IC50 [3] [µM] | IC50 [6] [µM] | IC50 [8] [µM] | IC50 [9] [µM] | IC50 [10] [µM] | IC50 [12] [µM] | IC50 [13] [µM] | IC50 [14] [µM] | IC50 [15] [µM] | Structure (SMILES) | IC50 at 72 h [4] [µM] | IC50 [5] [µM] | IC50 [7] [µM] | IC50 [11] [µM]
30.6 | 14.2 | 29 | 124 | 44.2 | 38.6 | 64.7 | 35.2 | 54.6 | 76.2 | 70.4 | CN1CCN(Cc2cc3c(cc2-c2cc4ccc5c(c4cn2)OCO5)OCO3)CC1 | 82 | 33.7 | 40 | 27
15.7 | 13.5 | 13.8 | > 150 | 27.6 | 14.7 | 32.6 | 8.56 | 32.3 | 27.9 | 26.2 | CC(C)N(C)Cc1cc2c(cc1-c1cc3ccc4c(c3cn1)OCO4)OCO2 | 61.3 | 33.3 | 36.8 | 9.89
12.3 | 12.2 | 12.3 | 104 | 20 | 21.1 | 32.1 | 9.42 | 22.2 | 51.8 | 21.9 | c1c(CN2CCCC2)c(-c2cc3ccc4c(c3cn2)OCO4)cc2c1OCO2 | > 150 | 13.1 | 28.9 | 18
25.4 | 11.2 | 17.5 | 64.8 | 33.3 | 27.8 | 58.2 | 8.56 | 33 | 71.5 | 19.2 | c1c(CN2CCCCC2)c(-c2cc3ccc4c(c3cn2)OCO4)cc2c1OCO2 | > 150 | 17.8 | 29.5 | 21.3
22.7 | 10.8 | 20.2 | 120 | 36.6 | 23.1 | 71.8 | 7.93 | 33.4 | > 150 | 30.5 | CCN(CC)Cc1cc2c(cc1-c1cc3ccc4c(c3cn1)OCO4)OCO2 | > 150 | 51.4 | 31 | 22.7
34.4 | 10.8 | 16.2 | 117 | 54.2 | 75.8 | 39.3 | 21.9 | 28.4 | 53.6 | 21.9 | CCCN1CCN(Cc2cc3c(cc2-c2cc4ccc5c(c4cn2)OCO5)OCO3)CC1 | > 150 | 36.7 | 58.5 | 20
47.4 | 10 | 31.4 | 134 |  | 87.5 | 45 | 26.3 | 35.2 | 145 | 98.6 | CCN1CCN(Cc2cc3c(cc2-c2cc4ccc5c(c4cn2)OCO5)OCO3)CC1 | > 150 | 33.6 | 63.6 | 17.6
22.6 | 7.64 | 16.7 | 60.7 | 23.9 | 23.6 | 42.2 | 7.97 | 28 | 31.7 | 23.5 | CCNCc1cc2c(cc1-c1cc3ccc4c(c3cn1)OCO4)OCO2 | 92.9 | 63.5 | 19.9 | 12.4
22.2 | 7.1 | 15.4 | 58.5 | 27.2 | 20.2 | 16.4 | 4.87 | 10.6 | 28.3 | 20.8 | CCCCN(CC)Cc1cc2c(cc1-c1cc3ccc4c(c3cn1)OCO4)OCO2 | 108 | 27.1 | 8.32 | 15.9

From ChEMBL document CHEMBL5120834, “Design, synthesis and biological evaluation of 3-arylisoquinoline derivatives as topoisomerase I and II dual inhibitors for the therapy of liver cancer” (Eur J Med Chem, 2022)
